Experiments:
[1] = Total phenolic content by Folin-Ciocalteau (FC) method; details: 1000 μg/mL concentration
Method: Total phenolic content of the particles was evaluated by Folin-Ciocalteau (FC) method. Briefly, 0.1 mL of 1 mg/mL microgel suspensions were reacted with 1.25 mL of 0.2 N solution of FC phenol reagent for 4 min. Next, 1 mL of 0.7 M sodium bicarbonate solution was added to this mixture and kept in the dark for 2 hours. Then, the total phenol content of the microgels was measured by using a UV/Vis spectrophotometer (T80+PG Instrument) at 760 nm. The antioxidant activity of the microgels was expressed as μg/mL gallic acid equivalent. The analysis was repeated three times, and the values are reported as the average values with standard deviations.

[2] = cited from earlier work

O=C(/C=C/c1ccc(O)c(O)c1)O[C@H](Cc1ccc(O)c(O)c1)C(=O)O [RA, Rosmarinic acid]
Total phenol content (TPC), gallic acid equivalent [1]: 556±35 μg/mL gallic acid equivalent
IC50 (50% inhibition of DPPH radical) [2]: 1.3 ± 0.1 µg/mL
